Laboratory results reported in ChEMBL document CHEMBL3044805, “A comparative study of the efficiency of several sources of induced resistance to powdery mildew (Blumeria graminis f. sp. tritici) in wheat under field conditions” (2009).

Tests used:
Triticum aestivum [1] = assay: (§1) Induction of systemic acquired resistance against Blumeria graminis f. sp. tritici in Triticum aestivum (wheat) plants on Kanzler cultivar assessed as decrease in disease severity of powdery mildew in leaves […] (wheat) exposed to 1.2 mM compound for 3 years by small-plot experiment relative to control; assay type: functional; set-up: scale not given: the % may be the effect or the level left
Triticum aestivum [2] = assay: as §1, with “0.3 M” for “1.2 mM”; assay type: functional; set-up: scale not given: the % may be the effect or the level left

CSC(=O)c1cccc2nnsc12 [ACIBENZOLAR-S-METHYL]
Activity (Triticum aestivum [1]): 14.5%

C[N+](C)(C)CC(=O)O [BETAINE]
Activity (Triticum aestivum [2]): 31.8%
